Results reported in ChEMBL document CHEMBL1151111, “Antitumor agents, 99. Synthetic ring C aromatized podophyllotoxin analogues as potential inhibitors of human DNA topoisomerase II” (1988).
Values after ≈ are worked out from the molar mass of the structure shown. Active and inactive are the calls of the source. The calls are words filed in the database; no cut-off is given here.

What was measured:
[1] = species: Homo sapiens; assay: Inhibition of human DNA topoisomerase 2 at 200 uM
[2] = tested on: KB; assay: Cytotoxicity against human KB cells; type: functional; conditions: read-out: ED50 (the source's name)
[3] = tested on: P388; assay: In vivo cytotoxicity against mouse P388 cells at 50 mg/kg/day relative to control; type: functional
[4] = species: Homo sapiens; assay: Inhibition of human DNA topoisomerase 2 at 400 uM

Row | SMILES | inhibition [1] | EC50 [2] [µg/mL] | T/C [3] [%] | inhibition [4] [%]
1 | COc1cc(-c2c3c(c(O)c4cc5c(cc24)OCO5)COC3=O)cc(OC)c1O | inactive | 2.2 (≈ 5.55 µM) | – | –
2 | CCOc1c2c(c(-c3cc(OC)c(OC)c(OC)c3)c3cc4c(cc13)OCO4)C(=O)OC2 [DEHYDROPODOPHYLLOTOXIN ETHYL ETHER] | inactive | 4 (≈ 9.12 µM) | – | –
3 | COc1cc2c(O)c3c(c(-c4ccc5c(c4)OCO5)c2cc1OC)C(=O)OC3 [DIPHYLLIN] | – | < 1 | 150 | –
4 | COc1cc(-c2c3c(c(O)c4cc5c(cc24)OCO5)COC3=O)cc(OC)c1OC [DEHYDROPODOPHYLLOTOXIN] | inactive | 4 (≈ 9.75 µM) | – | –
5 | CCO[C@@H]1c2cc3c(cc2[C@@H](c2cc(OC)c(O)c(OC)c2)[C@H]2C(=O)OC[C@@H]21)OCO3 | – | 1.1 (≈ 2.57 µM) | – | 25
6 | COc1cc2c(OC)c3c(c(-c4ccc5c(c4)OCO5)c2cc1OC)C(=O)OC3 [JUSTICIDIN A] | – | < 1 | 150 | –
7 | CCOc1c2c(c(-c3cc(OC)c(O)c(OC)c3)c3cc4c(cc13)OCO4)C(=O)OC2 | inactive | 4 (≈ 9.42 µM) | – | –
8 | COc1cc([C@@H]2c3cc4c(cc3[C@@H](O[C@@H]3O[C@@H]5CO[C@@H](C)O[C@H]5[C@H](O)[C@H]3O)[C@H]3COC(=O)[C@H]23)OCO4)cc(OC)c1O [ETOPOSIDE] | 80% | 0.1 (≈ 0.17 µM) | – | 85
9 | CCCOc1c2c(c(-c3cc(OC)c(OC)c(OC)c3)c3cc4c(cc13)OCO4)C(=O)OC2 [DEHYDROPODOPHYLLOTOXIN PROPYL ETHER] | inactive | 4 (≈ 8.84 µM) | – | –
10 | COc1cc([C@@H]2c3cc4c(cc3[C@@H](O)[C@H]3COC(=O)[C@H]23)OCO4)cc(OC)c1O [4'-DEMETHYLEPIPODOPHYLLOTOXIN] | – | 0.1 (≈ 0.25 µM) | – | 50
